In patent publication US20260265316A1, “IMMUNOTHERAPEUTIC METHODS, COMPOUNDS, AND COMPOSITIONS FOR TREATING OR PREVENTING CELIAC DISEASE” (DBV Technologies, priority 2023, published 2026):

Experiment: Solubility upon drying on PET-Ti backing film and storage for 1 or 3 months at room temperature or 5° C.
Assay type: physicochemical
Procedure: Backing films were stored for 1 month at room temperature (A, B, C) or 5° C. (D, E, F), away from light and humidity.
Backing films were stored for 3 months at room temperature (A, B, C) or 5° C. (D, E, F), away from light and humidity.
In order to evaluate their solubility upon deposition on a patch backing film and a period of storage, the three polypeptide constructs and the four individual building blocks were each dried on a PET-Ti backing film as described above. Backing films were stored at room temperature or 5° C. for 1 or 3 months.

[1] = stored at 5° C. for 1 month, PBS 1×
[2] = stored at 5° C. for 1 month, artificial perspiration
[3] = stored at 5° C. for 1 month, water
[4] = stored at 5° C. for 3 months, PBS 1×
[5] = stored at 5° C. for 3 months, artificial perspiration
[6] = stored at 5° C. for 3 months, water
[7] = stored at room temperature for 1 month, PBS 1×
[8] = stored at room temperature for 1 month, artificial perspiration
[9] = stored at room temperature for 1 month, water
[10] = stored at room temperature for 3 months, PBS 1×
[11] = stored at room temperature for 3 months, artificial perspiration
[12] = stored at room temperature for 3 months, water

## H-PQPEQPEQPFPEQPQ-NH2 [BB2a]
[1]
  decrease in median percentage of soluble material recovered from the patch backing film compared to 4K: 16%
  decrease in median percentage of soluble material recovered from the patch backing film compared to Av6: 7%
  decrease in median percentage of soluble material recovered from the patch backing film compared to Cv6: 14%
[2]
  decrease in median percentage of soluble material recovered from the patch backing film compared to 4K: 14%
  decrease in median percentage of soluble material recovered from the patch backing film compared to Av6: 8%
  decrease in median percentage of soluble material recovered from the patch backing film compared to Cv6: 7%
[3]
  decrease in median percentage of soluble material recovered from the patch backing film compared to 4K: 20%
  decrease in median percentage of soluble material recovered from the patch backing film compared to Av6: 10%
  decrease in median percentage of soluble material recovered from the patch backing film compared to Cv6: 6%
[4]
  decrease in median percentage of soluble material recovered from the patch backing film compared to 4K: 16%
  decrease in median percentage of soluble material recovered from the patch backing film compared to Av6: 9%
  decrease in median percentage of soluble material recovered from the patch backing film compared to Cv6: 16%
[5]
  decrease in median percentage of soluble material recovered from the patch backing film compared to 4K: 20%
  decrease in median percentage of soluble material recovered from the patch backing film compared to Av6: 15%
  decrease in median percentage of soluble material recovered from the patch backing film compared to Cv6: 14%
[6]
  decrease in median percentage of soluble material recovered from the patch backing film compared to 4K: 19%
  decrease in median percentage of soluble material recovered from the patch backing film compared to Av6: 15%
  decrease in median percentage of soluble material recovered from the patch backing film compared to Cv6: 13%
[7]
  decrease in median percentage of soluble material recovered from the patch backing film compared to 4K: 15%
  decrease in median percentage of soluble material recovered from the patch backing film compared to Av6: 11%
  decrease in median percentage of soluble material recovered from the patch backing film compared to Cv6: 14%
[8]
  decrease in median percentage of soluble material recovered from the patch backing film compared to 4K: 14%
  decrease in median percentage of soluble material recovered from the patch backing film compared to Av6: 1%
  decrease in median percentage of soluble material recovered from the patch backing film compared to Cv6: 14%
[9]
  decrease in median percentage of soluble material recovered from the patch backing film compared to 4K: 18%
  decrease in median percentage of soluble material recovered from the patch backing film compared to Av6: 9%
  decrease in median percentage of soluble material recovered from the patch backing film compared to Cv6: 13%
[10]
  decrease in median percentage of soluble material recovered from the patch backing film compared to 4K: 17%
  decrease in median percentage of soluble material recovered from the patch backing film compared to Av6: 17%
  decrease in median percentage of soluble material recovered from the patch backing film compared to Cv6: 15%
[11]
  decrease in median percentage of soluble material recovered from the patch backing film compared to 4K: 16%
  decrease in median percentage of soluble material recovered from the patch backing film compared to Av6: 10%
  decrease in median percentage of soluble material recovered from the patch backing film compared to Cv6: 16%
[12]
  decrease in median percentage of soluble material recovered from the patch backing film compared to 4K: 15%
  decrease in median percentage of soluble material recovered from the patch backing film compared to Av6: 10%
  decrease in median percentage of soluble material recovered from the patch backing film compared to Cv6: 4%

## H-PSGEGSFQPSQENPQ-NH2 [BB4a]
[1]
  decrease in median percentage of soluble material recovered from the patch backing film compared to 4K: 14%
  decrease in median percentage of soluble material recovered from the patch backing film compared to Av6: 5%
  decrease in median percentage of soluble material recovered from the patch backing film compared to Cv6: 12%
[2]
  decrease in median percentage of soluble material recovered from the patch backing film compared to 4K: 13%
  decrease in median percentage of soluble material recovered from the patch backing film compared to Av6: 8%
  decrease in median percentage of soluble material recovered from the patch backing film compared to Cv6: 7%
[3]
  decrease in median percentage of soluble material recovered from the patch backing film compared to 4K: 14%
  decrease in median percentage of soluble material recovered from the patch backing film compared to Av6: 4%
  decrease in median percentage of soluble material recovered from the patch backing film compared to Cv6: 0%
[4]
  decrease in median percentage of soluble material recovered from the patch backing film compared to 4K: 17%
  decrease in median percentage of soluble material recovered from the patch backing film compared to Av6: 10%
  decrease in median percentage of soluble material recovered from the patch backing film compared to Cv6: 17%
[5]
  decrease in median percentage of soluble material recovered from the patch backing film compared to 4K: 17%
  decrease in median percentage of soluble material recovered from the patch backing film compared to Av6: 11%
  decrease in median percentage of soluble material recovered from the patch backing film compared to Cv6: 10%
[6]
  decrease in median percentage of soluble material recovered from the patch backing film compared to 4K: 18%
  decrease in median percentage of soluble material recovered from the patch backing film compared to Av6: 14%
  decrease in median percentage of soluble material recovered from the patch backing film compared to Cv6: 12%
[7]
  decrease in median percentage of soluble material recovered from the patch backing film compared to 4K: 14%
  decrease in median percentage of soluble material recovered from the patch backing film compared to Av6: 10%
  decrease in median percentage of soluble material recovered from the patch backing film compared to Cv6: 13%
[8]
  decrease in median percentage of soluble material recovered from the patch backing film compared to 4K: 14%
  decrease in median percentage of soluble material recovered from the patch backing film compared to Av6: 1%
  decrease in median percentage of soluble material recovered from the patch backing film compared to Cv6: 14%
[9]
  decrease in median percentage of soluble material recovered from the patch backing film compared to 4K: 15%
  decrease in median percentage of soluble material recovered from the patch backing film compared to Av6: 7%
  decrease in median percentage of soluble material recovered from the patch backing film compared to Cv6: 11%
[10]
  decrease in median percentage of soluble material recovered from the patch backing film compared to 4K: 11%
  decrease in median percentage of soluble material recovered from the patch backing film compared to Av6: 11%
  decrease in median percentage of soluble material recovered from the patch backing film compared to Cv6: 9%
[11]
  decrease in median percentage of soluble material recovered from the patch backing film compared to 4K: 12%
  decrease in median percentage of soluble material recovered from the patch backing film compared to Av6: 6%
  decrease in median percentage of soluble material recovered from the patch backing film compared to Cv6: 12%
[12]
  decrease in median percentage of soluble material recovered from the patch backing film compared to 4K: 13%
  decrease in median percentage of soluble material recovered from the patch backing film compared to Av6: 9%
  decrease in median percentage of soluble material recovered from the patch backing film compared to Cv6: 2%
